Experimental data as given in patent US10219516B2, “Molecules having pesticidal utility, and intermediates, compositions, and processes, related thereto” (priority 2015, dated 2019).
Where two headings read alike, the source gives them in different places.

Key:
Format in all cases: in vivo
[1] = test system: Yellow Fever Mosquito (Aedes aegypti, AEDSAE); assay: Bioassay on Yellow Fever Mosquito (YFM), 96-well plate larval assay; settings: for YFM (Biological Results, rating): Species YFM (Yellow Fever Mosquito); for YFM rating: Yellow Fever Mosquito, 96-well plate larval assay
How it was run: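 Each well was scored for mortality after 3 days at room temperature under a non-evaporative lid. Test molecules came from DMSO masters (4000 ppm stock) diluted with water/acetone 90:10 and dispensed into six replicate plates, which were then infested with roughly 1-day-old larvae in liver-powder water.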

[2] = test system: Green Peach Aphid (Myzus persicae, MYZUPE); assay: Bioassay on Green Peach Aphid (GPA), foliar spray on infested cabbage seedlings; settings: 72 h
How it was run: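 Cabbage seedlings (2-3 true leaves) infested with 20-50 wingless adult and nymph aphids one day before treatment; sprayed to runoff at 200 ppm in 0.025% Tween 20 water with 20% acetone/methanol, four pots per treatment. Held three days at about 25° C; live aphids counted, % control by Abbott's correction versus solvent check.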

[3] = test system: Beet Armyworm (Spodoptera exigua, LAPHEG); assay: Bioassay on Beet Armyworm (BAW), 128-well diet tray assay
How it was run: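 Diet in each of eight wells received 50 μg/cm^2 of test molecule (90:10 acetone-water, dried), then one to five second-instar larvae were added. Mortality (%) was scored after five to seven days at 25° C. under 14:10 light-dark and averaged across the wells.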

[4] = test system: Cabbage Looper (Trichoplusia ni, TRIPNI); assay: Bioassay on Cabbage Looper (CL), 128-well diet tray assay; settings: Trichoplusia ni
How it was run: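 Second-instar larvae, one to five per well, were placed on artificial diet surface-treated with 50 μg/cm^2 test molecule applied in 90:10 acetone-water and dried, eight wells per molecule. Trays were covered, vented and held at 25° C., 14:10 light-dark for five to seven days; percent mortality per well was averaged.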

[5] = foliar, Species GPA (Green Peach Aphid), read-out: GPA (Biological Results, rating)
[6] = Species BAW (Beet Armyworm), read-out: BAW (Biological Results, rating)
[7] = Species CL (Cabbage Looper), read-out: CL (Biological Results, rating)
[8] = Green Peach Aphid, foliar spray on cabbage seedlings, read-out: GPA rating
[9] = Beet Armyworm, 128-well diet tray assay, read-out: BAW rating
[10] = Cabbage Looper, 128-well diet tray assay, read-out: CL rating

Compound: O=C(Nc1ccc(F)cc1)c1cc(NC(=O)[C@@H]2[C@@H](c3cc(Cl)c(Cl)c(Cl)c3)C2(Cl)Cl)ccc1Cl [F280, 2-Chloro-5-((1S,3S)-2,2-dichloro-3-(3,4,5-trichlorophenyl)cyclopropane-1-carboxamido)-N-(4-fluorophenyl)benzamide]
- YFM (Biological Results, rating) [1]: A (80-100)
- pest or weed control at 200 µg/mL [2, 5]: 0 to 80%
- pest or weed control at 50 µg/cm2 [3, 6]: 50 to 100%
- pest or weed control at 50 µg/cm2 [4, 7]: 50 to 100%

Compound: O=C(Nc1cccc(F)c1)c1cc(NC(=O)[C@H]2[C@H](c3cc(Cl)cc(Cl)c3)C2(Cl)Cl)ccc1Cl (relative stereo) [F20, trans-2-Chloro-5-(2,2-dichloro-3-(3,5-dichlorophenyl)cyclopropane-1-carboxamido)-N-(3-fluorophenyl)benzamide]
- YFM (Biological Results, rating) [1]: A (80-100)
- pest or weed control at 200 µg/mL [2, 5]: 0 to 80%
- pest or weed control at 50 µg/cm2 [3, 6]: 50 to 100%
- pest or weed control at 50 µg/cm2 [4, 7]: 50 to 100%

Compound: O=C(Nc1ccccc1)c1cc(NC(=O)[C@H]2[C@H](c3cc(Cl)cc(Cl)c3)C2(Cl)Cl)ccc1Cl (relative stereo) [F16, trans-2-Chloro-5-(2,2-Dichloro-3-(3,5-dichlorophenyl)cyclopropane-1-carboxamido)-N-phenylbenzamide]
- YFM (Biological Results, rating) [1]: A (80-100)
- pest or weed control at 200 µg/mL [2, 5]: 0 to 80%
- pest or weed control at 50 µg/cm2 [3, 6]: 50 to 100%
- pest or weed control at 50 µg/cm2 [4, 7]: 50 to 100%

Compound: O=C(Nc1c(F)cc(F)cc1F)c1cc(NC(=O)[C@H]2[C@H](c3cc(Cl)cc(Cl)c3)C2(Cl)Cl)ccc1Cl (relative stereo) [F24, trans-2-Chloro-5-(2,2-dichloro-3-(3,5-dichlorophenyl)cyclopropane-1-carboxamido)-N-(2,4,6-trifluorophenyl)benzamide]
- YFM (Biological Results, rating) [1]: A (80-100)
- pest or weed control at 200 µg/mL [2, 5]: 80 to 100%
- pest or weed control at 50 µg/cm2 [3, 6]: 50 to 100%
- pest or weed control at 50 µg/cm2 [4, 7]: 50 to 100%

Compound: CN(C(=O)c1cc(NC(=O)[C@H]2[C@H](c3cc(Cl)cc(Cl)c3)C2(Cl)Cl)ccc1Cl)c1cccc(F)c1 (relative stereo) [F34, trans-2-Chloro-5-(2,2-dichloro-3-(3,5-dichlorophenyl)cyclopropane-1-carboxamido)-N-(3-fluorophenyl)-N-methylbenzamide]
- YFM (Biological Results, rating) [1]: A (80-100)
- pest or weed control at 200 µg/mL [2, 5]: 0 to 80%
- pest or weed control at 50 µg/cm2 [3, 6]: 50 to 100%
- pest or weed control at 50 µg/cm2 [4, 7]: 50 to 100%

Compound: O=C(Nc1ccc(F)c(F)c1)c1cc(NC(=O)[C@H]2[C@H](c3cc(Cl)cc(Cl)c3)C2(Cl)Cl)ccc1Cl (relative stereo) [F23, trans-2-Chloro-5-(2,2-dichloro-3-(3,5-dichlorophenyl)cyclopropane-1-carboxamido)-N-(3,4-difluorophenyl)benzamide]
- YFM (Biological Results, rating) [1]: A (80-100)
- pest or weed control at 200 µg/mL [2, 5]: 0 to 80%
- pest or weed control at 50 µg/cm2 [3, 6]: 50 to 100%
- pest or weed control at 50 µg/cm2 [4, 7]: 50 to 100%

Compound: Nc1c(F)ccc(NC(=O)c2cc(NC(=O)[C@H]3[C@H](c4ccc(Cl)c(Br)c4)C3(Cl)Cl)ccc2Cl)c1F [F579, N-(3-Amino-2,4-difluorophenyl)-5-((1R,3R)-3-(3-bromo-4-chlorophenyl)-2,2-dichlorocyclopropane-1-carboxamido)-2-chlorobenzamide]
- YFM rating [1]: A (80-100)
- pest or weed control at 200 µg/mL [2, 8]: 80 to 100%
- pest or weed control at 50 µg/cm2 [3, 9]: 50 to 100%
- pest or weed control at 50 µg/cm2 [4, 10]: 50 to 100%

Compound: N#Cc1cccc(NC(=O)c2cc(NC(=O)[C@H]3[C@H](c4cc(Cl)cc(Cl)c4)C3(Cl)Cl)ccc2Cl)c1 (relative stereo) [F21, trans-2-Chloro-N-(3-cyanophenyl)-5-(2,2-dichloro-3-(3,5-dichlorophenyl)cyclopropane-1-carboxamido)benzamide]
- YFM (Biological Results, rating) [1]: A (80-100)
- pest or weed control at 200 µg/mL [2, 5]: 0 to 80%
- pest or weed control at 50 µg/cm2 [3, 6]: 50 to 100%
- pest or weed control at 50 µg/cm2 [4, 7]: 50 to 100%

Compound: Cc1cc(C#N)ccc1NC(=O)c1cc(NC(=O)[C@H]2[C@H](c3cc(Cl)cc(Cl)c3)C2(Cl)Cl)ccc1Cl (relative stereo) [F36, trans-2-Chloro-N-(4-cyano-2-methylphenyl)-5-(2,2-dichloro-3-(3,5-dichlorophenyl)cyclopropane-1-carboxamido)benzamide]
- YFM (Biological Results, rating) [1]: A (80-100)
- pest or weed control at 200 µg/mL [2, 5]: 0 to 80%
- pest or weed control at 50 µg/cm2 [3, 6]: 50 to 100%
- pest or weed control at 50 µg/cm2 [4, 7]: 50 to 100%

Compound: O=C(Nc1ccc(F)cc1)c1cc(NC(=O)[C@H]2[C@H](c3ccc(Cl)c(Cl)c3)C2(Cl)Cl)ccc1F (relative stereo) [F28, trans-5-(2,2-Dichloro-3-(3,4-dichlorophenyl)cyclopropane-1-carboxamido)-2-fluoro-N-(4-fluorophenyl)benzamide]
- YFM (Biological Results, rating) [1]: A (80-100)
- pest or weed control at 200 µg/mL [2, 5]: 80 to 100%
- pest or weed control at 50 µg/cm2 [3, 6]: 50 to 100%
- pest or weed control at 50 µg/cm2 [4, 7]: 50 to 100%

Compound: O=C(Nc1cccnc1Cl)c1cc(NC(=O)[C@H]2[C@H](c3cc(Cl)cc(Cl)c3)C2(Cl)Cl)ccc1Cl (relative stereo) [F31, trans-2-Chloro-N-(2-chloropyridin-3-yl)-5-(2,2-dichloro-3-(3,5-dichlorophenyl)cyclopropane-1-carboxamido)benzamide]
- YFM (Biological Results, rating) [1]: A (80-100)
- pest or weed control at 200 µg/mL [2, 5]: 80 to 100%
- pest or weed control at 50 µg/cm2 [3, 6]: 50 to 100%
- pest or weed control at 50 µg/cm2 [4, 7]: 50 to 100%

Compound: CN(C(=O)c1cc(NC(=O)[C@H]2[C@H](c3cc(Cl)cc(Cl)c3)C2(Cl)Cl)ccc1Cl)c1ccc(F)cc1F (relative stereo) [F44, trans-2-Chloro-5-(2,2-dichloro-3-(3,5-dichlorophenyl)cyclopropane-1-carboxamido)-N-(2,4-difluorophenyl)-N-methylbenzamide]
- YFM (Biological Results, rating) [1]: A (80-100)
- pest or weed control at 200 µg/mL [2, 5]: 80 to 100%
- pest or weed control at 50 µg/cm2 [3, 6]: 50 to 100%
- pest or weed control at 50 µg/cm2 [4, 7]: 50 to 100%

Compound: O=C(Nc1ccc(F)cc1)c1cc(NC(=O)[C@H]2[C@H](c3cc(Cl)c(Cl)c(Cl)c3)C2(Cl)Cl)ccc1Cl (relative stereo) [F13, trans-2-Chloro-5-(2,2-dichloro-3-(3,4,5-trichlorophenyl)cyclopropane-1-carboxamido)-N-(4-fluorophenyl)benzamide]
- YFM (Biological Results, rating) [1]: A (80-100)
- pest or weed control at 200 µg/mL [2, 5]: 0 to 80%
- pest or weed control at 50 µg/cm2 [3, 6]: 50 to 100%
- pest or weed control at 50 µg/cm2 [4, 7]: 50 to 100%

Compound: Cc1ccc(NC(=O)[C@H]2[C@H](c3cc(Cl)cc(Cl)c3)C2(Cl)Cl)cc1C(=O)Nc1ccc(F)cc1 (relative stereo) [F10, trans-5-(2,2-Dichloro-3-(3,5-dichlorophenyl)cyclopropane-1-carboxamido)-N-(4-fluorophenyl)-2-methylbenzamide]
- YFM (Biological Results, rating) [1]: A (80-100)
- pest or weed control at 200 µg/mL [2, 5]: 0 to 80%
- pest or weed control at 50 µg/cm2 [3, 6]: 50 to 100%
- pest or weed control at 50 µg/cm2 [4, 7]: 50 to 100%

Compound: O=C(Nc1cccc([N+](=O)[O-])c1)c1cc(NC(=O)[C@H]2[C@H](c3cc(Cl)cc(Cl)c3)C2(Cl)Cl)ccc1Cl (relative stereo) [PF73, trans-2-Chloro-5-(2,2-dichloro-3-(3,5-dichlorophenyl)cyclopropane-1-carboxamido)-N-(3-nitrophenyl)benzamide]
- YFM rating [1]: B (More than 0-Less than 80)
- pest or weed control at 200 µg/mL [2, 8]: 80 to 100%
- pest or weed control at 50 µg/cm2 [3, 9]: 50 to 100%
- pest or weed control at 50 µg/cm2 [4, 10]: 50 to 100%
